From ChEMBL document CHEMBL1201862, “PubChem BioAssay data set” (2004)
Activity calls are given as the source filed them.

How the values were obtained:
CHO-K1 = assay: (§1) Counterscreen for antagonists of the orexin 1 receptor (OX1R; HCRTR1): Homogeneous time resolved fluorescence (HTRF)-based cell-based dose response assay to identify antagonists of the parental CHO-K1 cell line. [Related pubchem assays (depositor defined):AID434989, AID435008, AID463079, AID485270, AID492963, AID492964, AID492965, AID493232, AID504699, AID504701]; format: functional; settings: Cricetulus griseus
[1] = as §1, with “Fluorescence-based” for “Homogeneous time resolved fluorescence (HTRF)-based”, “cell-based high throughput” for “cell-based”, “CHO” for “CHO-K1”; format: functional
[2] = target: T1, Orexin/Hypocretin receptor type 1 (Homo sapiens, UniProt O43613); assay: Homogeneous Time Resolved Fluorescence (HTRF)-based cell-based high throughput dose response assay for antagonists of the orexin 1 receptor (OX1R; HCRTR1). [Related pubchem assays (depositor defined):AID434989, AID435008, AID463079, AID485270, AID492963, AID492964, AID492965, AID493232, AID504717, AID504718]; format: functional
T1 sequence (O43613 whole entry): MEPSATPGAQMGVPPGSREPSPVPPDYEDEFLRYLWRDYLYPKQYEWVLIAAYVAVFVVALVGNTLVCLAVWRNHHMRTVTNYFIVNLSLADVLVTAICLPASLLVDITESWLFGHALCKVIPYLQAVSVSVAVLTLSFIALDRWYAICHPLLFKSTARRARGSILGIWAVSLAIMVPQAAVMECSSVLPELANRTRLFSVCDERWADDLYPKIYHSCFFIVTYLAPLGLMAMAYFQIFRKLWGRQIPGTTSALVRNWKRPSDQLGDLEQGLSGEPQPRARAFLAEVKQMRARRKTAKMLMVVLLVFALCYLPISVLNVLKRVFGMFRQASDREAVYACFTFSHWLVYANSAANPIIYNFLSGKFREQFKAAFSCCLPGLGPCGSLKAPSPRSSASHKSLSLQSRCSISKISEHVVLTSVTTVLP

[3] = target: T1, Orexin/Hypocretin receptor type 1; assay: Fluorescence-based cell-based high throughput dose response assay for antagonists of the orexin 1 receptor (OX1R; HCRTR1). [Related pubchem assays (depositor defined):AID434989, AID435008, AID463079, AID485270, AID492963, AID492964, AID492965, AID493232, AID504717, AID504718]; format: functional
[4] = system: Streptococcus sp. 'group A'; assay: Streptococcus pyogenes SK(-)GAS viability under kanamycin – luminescence, BacTiterGlo, confirmation, counter-screen for streptokinase expression inhibitor project, dose response (AID 1900); format: functional, organism-based
[5] = target: T2, Heat shock factor protein 1 (Mus musculus, UniProt P38532); assay: decrease of HSF1-responsive luciferase luminescence – cell-based, NIH3T3, dose retest, confirmation (AID 2382); format: functional;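 also: NIH3T3 fibroblasts with HSF1-driven luciferase reporter stressed by proteasome inhibitor MG132; luminescence from HSF1-driven luciferase expression after 8 hours of MG132 stress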
T2 sequence (P38532 whole entry): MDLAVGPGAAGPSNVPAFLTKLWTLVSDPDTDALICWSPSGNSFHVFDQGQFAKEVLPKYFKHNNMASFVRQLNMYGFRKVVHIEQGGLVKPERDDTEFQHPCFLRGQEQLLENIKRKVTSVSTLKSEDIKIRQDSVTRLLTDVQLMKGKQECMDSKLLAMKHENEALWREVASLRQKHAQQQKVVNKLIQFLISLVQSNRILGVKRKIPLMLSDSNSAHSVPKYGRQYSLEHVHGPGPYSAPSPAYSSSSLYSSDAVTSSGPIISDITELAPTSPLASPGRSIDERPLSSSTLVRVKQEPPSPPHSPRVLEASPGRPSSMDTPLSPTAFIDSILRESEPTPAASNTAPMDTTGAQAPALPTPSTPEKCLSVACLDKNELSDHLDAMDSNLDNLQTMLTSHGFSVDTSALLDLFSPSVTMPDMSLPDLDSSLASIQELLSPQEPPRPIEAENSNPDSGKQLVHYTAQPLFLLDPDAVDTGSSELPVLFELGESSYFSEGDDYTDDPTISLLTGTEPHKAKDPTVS

Streptokinase A = target: T3, Streptokinase A (Streptococcus pyogenes serotype M1, UniProt P10520); assay: viability-normalized secreted streptokinase activity reduction – plasminogen activation absorbance, OD405, dose response (AID 1914); format: functional, Streptococcus pyogenes M1 GAS;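 also: secreted streptokinase activity via plasminogen activation per viability signal from cell pellet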
T3 sequence (P10520 whole entry): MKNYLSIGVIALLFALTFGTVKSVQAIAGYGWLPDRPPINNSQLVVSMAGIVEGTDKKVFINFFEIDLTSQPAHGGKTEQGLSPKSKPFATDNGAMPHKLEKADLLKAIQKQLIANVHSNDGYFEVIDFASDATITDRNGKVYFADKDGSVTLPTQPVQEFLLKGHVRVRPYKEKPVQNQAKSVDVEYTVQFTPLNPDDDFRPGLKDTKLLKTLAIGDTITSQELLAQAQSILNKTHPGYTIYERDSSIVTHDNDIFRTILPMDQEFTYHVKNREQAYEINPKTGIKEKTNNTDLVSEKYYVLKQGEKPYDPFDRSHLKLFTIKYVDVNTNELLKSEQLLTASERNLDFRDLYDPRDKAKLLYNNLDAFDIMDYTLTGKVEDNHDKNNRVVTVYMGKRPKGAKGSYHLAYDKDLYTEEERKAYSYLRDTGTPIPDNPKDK

Streptococcus = assay: GAS UMAA2166 growth inhibition – luminescence, BacTiterGlo, counter-screen for streptokinase expression inhibitor project, dose response (AID 1915); format: functional, organism-based;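 also: potency for reduction of bacterial viability or growth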
Escherichia coli = assay: microbe, parasite or virus in culture
[6] = target: Lysine-specific demethylase 4A (Homo sapiens, UniProt O75164); assay: inhibition of JMJD2A H3K9me3 demethylation – biochemical, DELFIA europium, cherry-picked samples, selectivity assay for GASC-1 inhibitor project, dose response (AID 488840)
[7] = target: Voltage-gated inwardly rectifying potassium channel KCNH2 (Homo sapiens, UniProt Q12809); settings: Potency;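 also: confirmatory quantitative high-throughput screen measuring inhibition of hERG channel activity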
Voltage-gated inwardly rectifying potassium channel KCNH2, sequence (Q12809 whole entry): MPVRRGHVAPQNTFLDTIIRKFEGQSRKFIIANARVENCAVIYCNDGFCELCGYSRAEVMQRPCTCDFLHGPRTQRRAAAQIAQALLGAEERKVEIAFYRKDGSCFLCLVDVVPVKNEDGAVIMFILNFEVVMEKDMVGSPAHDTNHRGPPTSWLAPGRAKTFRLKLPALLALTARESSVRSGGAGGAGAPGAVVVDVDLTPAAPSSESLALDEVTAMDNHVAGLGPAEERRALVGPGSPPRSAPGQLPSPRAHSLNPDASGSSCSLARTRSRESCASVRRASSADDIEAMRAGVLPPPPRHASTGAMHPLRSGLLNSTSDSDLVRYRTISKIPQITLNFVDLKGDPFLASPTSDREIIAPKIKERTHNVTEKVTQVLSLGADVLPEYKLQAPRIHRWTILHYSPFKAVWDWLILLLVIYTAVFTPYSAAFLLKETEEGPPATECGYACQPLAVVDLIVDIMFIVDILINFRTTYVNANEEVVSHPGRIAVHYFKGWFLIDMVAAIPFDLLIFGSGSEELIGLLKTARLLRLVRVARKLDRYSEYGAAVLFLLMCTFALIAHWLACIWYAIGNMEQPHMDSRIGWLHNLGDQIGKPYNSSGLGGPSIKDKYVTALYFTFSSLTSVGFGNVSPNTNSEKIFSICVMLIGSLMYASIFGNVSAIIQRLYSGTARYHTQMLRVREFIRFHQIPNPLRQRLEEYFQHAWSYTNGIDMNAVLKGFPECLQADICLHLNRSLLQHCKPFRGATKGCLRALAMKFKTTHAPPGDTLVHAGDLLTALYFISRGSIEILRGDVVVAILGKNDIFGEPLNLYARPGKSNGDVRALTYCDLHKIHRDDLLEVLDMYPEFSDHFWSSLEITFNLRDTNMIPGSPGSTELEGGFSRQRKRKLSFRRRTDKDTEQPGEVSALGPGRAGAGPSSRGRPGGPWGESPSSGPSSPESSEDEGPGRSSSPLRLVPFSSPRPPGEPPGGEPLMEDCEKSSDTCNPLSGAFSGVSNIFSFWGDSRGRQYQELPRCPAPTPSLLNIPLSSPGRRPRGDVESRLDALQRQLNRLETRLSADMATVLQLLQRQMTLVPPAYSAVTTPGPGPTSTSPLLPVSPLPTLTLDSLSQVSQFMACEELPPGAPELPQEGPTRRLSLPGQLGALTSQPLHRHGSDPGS

[8] = target: T4, Mannose-6-phosphate isomerase (Homo sapiens, UniProt P34949); assay: phosphomannose isomerase inhibition – biochemical, fluorescence intensity, confirmation (AID 1535)
T4 sequence (P34949 whole entry): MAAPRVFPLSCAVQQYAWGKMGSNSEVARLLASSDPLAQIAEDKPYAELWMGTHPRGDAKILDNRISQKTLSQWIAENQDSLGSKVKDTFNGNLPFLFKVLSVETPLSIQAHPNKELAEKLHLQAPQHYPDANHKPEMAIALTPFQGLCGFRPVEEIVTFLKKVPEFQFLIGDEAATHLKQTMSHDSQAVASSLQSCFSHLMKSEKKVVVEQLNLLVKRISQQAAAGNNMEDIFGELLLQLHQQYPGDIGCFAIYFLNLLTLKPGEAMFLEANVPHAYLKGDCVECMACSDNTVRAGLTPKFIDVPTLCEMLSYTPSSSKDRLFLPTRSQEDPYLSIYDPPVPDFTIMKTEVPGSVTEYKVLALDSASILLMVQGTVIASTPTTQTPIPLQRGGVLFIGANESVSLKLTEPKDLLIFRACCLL

Phosphomannomutase 2 = Phosphomannomutase 2 (Homo sapiens, UniProt O15305); assay: Counter screen SAR assay for PMM2 inhibitors via a fluorescence intensity assay. [Related pubchem assays (depositor defined):AID1545, AID1574]
Phosphomannomutase 2, sequence (O15305 whole entry): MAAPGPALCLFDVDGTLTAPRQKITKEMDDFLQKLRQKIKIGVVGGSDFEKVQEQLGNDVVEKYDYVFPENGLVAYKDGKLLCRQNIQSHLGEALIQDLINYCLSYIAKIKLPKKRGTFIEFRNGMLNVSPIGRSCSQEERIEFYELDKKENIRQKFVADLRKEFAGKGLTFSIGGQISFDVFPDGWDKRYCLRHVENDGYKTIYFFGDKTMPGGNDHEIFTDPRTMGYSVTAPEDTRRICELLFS

Cytochrome P450 3A4 = Cytochrome P450 3A4 (Homo sapiens, UniProt P08684); settings: Potency;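 also: confirmatory qHTS run detecting inhibitors and substrates of CYP3A4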
[9] = target: T5, Tyrosine-protein phosphatase non-receptor type 7 (Homo sapiens, UniProt P35236); format: functional
T5 sequence (P35236 whole entry): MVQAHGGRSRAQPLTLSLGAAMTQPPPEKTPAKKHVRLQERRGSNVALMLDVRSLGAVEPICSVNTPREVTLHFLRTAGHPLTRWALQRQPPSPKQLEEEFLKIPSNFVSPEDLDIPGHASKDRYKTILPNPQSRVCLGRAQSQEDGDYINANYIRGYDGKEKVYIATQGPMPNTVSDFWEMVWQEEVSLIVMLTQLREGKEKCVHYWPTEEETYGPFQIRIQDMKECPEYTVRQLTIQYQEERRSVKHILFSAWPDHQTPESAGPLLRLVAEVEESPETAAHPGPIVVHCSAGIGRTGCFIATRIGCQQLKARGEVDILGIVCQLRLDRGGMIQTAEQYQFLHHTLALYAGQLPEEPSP

[10] = target: T6, Tyrosine-protein phosphatase non-receptor type 22 (Homo sapiens, UniProt Q9Y2R2); format: functional
T6 sequence (Q9Y2R2 whole entry): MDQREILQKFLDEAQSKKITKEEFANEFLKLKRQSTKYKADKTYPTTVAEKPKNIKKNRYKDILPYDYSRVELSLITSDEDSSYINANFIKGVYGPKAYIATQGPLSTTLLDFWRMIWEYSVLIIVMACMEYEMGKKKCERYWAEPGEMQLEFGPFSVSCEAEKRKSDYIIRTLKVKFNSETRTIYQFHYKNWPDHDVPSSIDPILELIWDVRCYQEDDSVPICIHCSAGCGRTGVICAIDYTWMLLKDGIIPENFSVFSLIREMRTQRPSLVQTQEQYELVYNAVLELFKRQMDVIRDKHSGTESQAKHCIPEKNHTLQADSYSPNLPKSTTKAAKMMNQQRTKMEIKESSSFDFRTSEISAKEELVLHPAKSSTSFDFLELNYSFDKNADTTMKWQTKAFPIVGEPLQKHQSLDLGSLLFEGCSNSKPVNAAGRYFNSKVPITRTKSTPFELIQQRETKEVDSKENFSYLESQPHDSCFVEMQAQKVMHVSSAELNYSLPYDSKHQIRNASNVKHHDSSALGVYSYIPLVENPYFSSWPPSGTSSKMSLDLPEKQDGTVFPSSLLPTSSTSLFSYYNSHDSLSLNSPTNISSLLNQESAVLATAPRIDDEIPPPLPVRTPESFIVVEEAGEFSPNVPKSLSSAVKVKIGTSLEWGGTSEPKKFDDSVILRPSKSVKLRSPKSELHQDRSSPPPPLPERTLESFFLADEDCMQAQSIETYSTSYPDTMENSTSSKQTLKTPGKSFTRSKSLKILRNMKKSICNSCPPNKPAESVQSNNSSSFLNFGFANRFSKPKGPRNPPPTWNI

[11] = target: T6, Tyrosine-protein phosphatase non-receptor type 22; format: functional; remark: listed apart in the source
[12] = target: T7, Voltage-gated N-type calcium channel alpha-1B subunit/Amyloid beta A4 precursor protein-binding family A member 1 (Homo sapiens, UniProt Q00975+Q02410); format: protein assay
T7 sequence (Q00975 whole entry): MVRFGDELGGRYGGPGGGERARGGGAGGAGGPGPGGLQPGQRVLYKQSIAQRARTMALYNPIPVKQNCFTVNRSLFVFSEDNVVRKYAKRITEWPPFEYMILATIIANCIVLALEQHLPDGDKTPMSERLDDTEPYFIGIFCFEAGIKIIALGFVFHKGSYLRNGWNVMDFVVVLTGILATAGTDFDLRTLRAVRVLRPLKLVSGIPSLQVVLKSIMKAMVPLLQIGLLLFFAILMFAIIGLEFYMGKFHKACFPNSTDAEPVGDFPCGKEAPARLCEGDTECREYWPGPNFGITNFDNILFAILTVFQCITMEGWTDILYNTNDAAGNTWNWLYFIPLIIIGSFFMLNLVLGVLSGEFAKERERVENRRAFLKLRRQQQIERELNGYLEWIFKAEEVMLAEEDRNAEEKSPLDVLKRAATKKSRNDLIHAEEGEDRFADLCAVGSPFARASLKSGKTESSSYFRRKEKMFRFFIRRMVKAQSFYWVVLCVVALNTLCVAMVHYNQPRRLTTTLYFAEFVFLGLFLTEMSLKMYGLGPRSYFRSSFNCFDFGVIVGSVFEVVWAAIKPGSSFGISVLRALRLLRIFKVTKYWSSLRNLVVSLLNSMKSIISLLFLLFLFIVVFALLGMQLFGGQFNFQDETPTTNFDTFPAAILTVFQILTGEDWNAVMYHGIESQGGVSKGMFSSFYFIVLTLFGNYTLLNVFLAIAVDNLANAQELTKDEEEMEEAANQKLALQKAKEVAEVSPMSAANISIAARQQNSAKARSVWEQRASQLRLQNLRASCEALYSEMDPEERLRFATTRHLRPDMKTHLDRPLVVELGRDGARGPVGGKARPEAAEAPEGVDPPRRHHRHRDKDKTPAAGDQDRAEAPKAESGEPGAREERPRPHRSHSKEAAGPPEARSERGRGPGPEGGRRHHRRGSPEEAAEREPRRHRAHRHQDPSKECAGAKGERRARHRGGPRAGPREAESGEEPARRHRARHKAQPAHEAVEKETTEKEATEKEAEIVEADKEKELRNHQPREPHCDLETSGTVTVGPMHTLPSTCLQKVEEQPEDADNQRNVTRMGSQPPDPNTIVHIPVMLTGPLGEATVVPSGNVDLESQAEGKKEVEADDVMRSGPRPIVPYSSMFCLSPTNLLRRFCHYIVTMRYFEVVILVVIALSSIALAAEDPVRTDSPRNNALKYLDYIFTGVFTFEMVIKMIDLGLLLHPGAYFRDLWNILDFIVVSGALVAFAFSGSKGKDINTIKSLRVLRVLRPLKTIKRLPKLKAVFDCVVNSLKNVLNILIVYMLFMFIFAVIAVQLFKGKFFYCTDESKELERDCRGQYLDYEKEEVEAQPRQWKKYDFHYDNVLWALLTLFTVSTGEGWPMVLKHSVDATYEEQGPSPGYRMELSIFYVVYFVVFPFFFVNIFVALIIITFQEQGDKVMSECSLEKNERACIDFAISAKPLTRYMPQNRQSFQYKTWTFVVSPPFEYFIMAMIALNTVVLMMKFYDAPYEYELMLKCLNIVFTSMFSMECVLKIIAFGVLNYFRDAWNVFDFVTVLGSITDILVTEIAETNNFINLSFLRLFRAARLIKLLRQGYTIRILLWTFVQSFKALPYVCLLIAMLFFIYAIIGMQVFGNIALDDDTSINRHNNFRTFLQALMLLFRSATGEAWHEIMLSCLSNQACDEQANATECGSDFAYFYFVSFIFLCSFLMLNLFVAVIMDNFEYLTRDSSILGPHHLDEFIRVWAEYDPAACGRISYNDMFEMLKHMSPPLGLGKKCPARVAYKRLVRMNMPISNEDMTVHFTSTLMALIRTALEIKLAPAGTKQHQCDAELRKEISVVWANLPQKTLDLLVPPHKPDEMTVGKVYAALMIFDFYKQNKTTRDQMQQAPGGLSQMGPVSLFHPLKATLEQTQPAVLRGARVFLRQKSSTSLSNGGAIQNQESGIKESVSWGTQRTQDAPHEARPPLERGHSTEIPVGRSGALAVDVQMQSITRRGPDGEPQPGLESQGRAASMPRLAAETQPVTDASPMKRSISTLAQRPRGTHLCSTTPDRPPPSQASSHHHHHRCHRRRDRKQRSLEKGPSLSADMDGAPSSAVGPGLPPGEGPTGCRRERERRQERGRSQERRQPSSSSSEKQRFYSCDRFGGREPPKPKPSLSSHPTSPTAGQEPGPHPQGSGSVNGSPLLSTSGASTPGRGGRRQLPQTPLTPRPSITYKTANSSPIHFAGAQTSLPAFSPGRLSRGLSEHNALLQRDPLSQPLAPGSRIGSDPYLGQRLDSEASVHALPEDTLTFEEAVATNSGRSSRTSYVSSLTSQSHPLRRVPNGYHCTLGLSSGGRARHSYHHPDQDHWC
T7 sequence (Q02410 whole entry): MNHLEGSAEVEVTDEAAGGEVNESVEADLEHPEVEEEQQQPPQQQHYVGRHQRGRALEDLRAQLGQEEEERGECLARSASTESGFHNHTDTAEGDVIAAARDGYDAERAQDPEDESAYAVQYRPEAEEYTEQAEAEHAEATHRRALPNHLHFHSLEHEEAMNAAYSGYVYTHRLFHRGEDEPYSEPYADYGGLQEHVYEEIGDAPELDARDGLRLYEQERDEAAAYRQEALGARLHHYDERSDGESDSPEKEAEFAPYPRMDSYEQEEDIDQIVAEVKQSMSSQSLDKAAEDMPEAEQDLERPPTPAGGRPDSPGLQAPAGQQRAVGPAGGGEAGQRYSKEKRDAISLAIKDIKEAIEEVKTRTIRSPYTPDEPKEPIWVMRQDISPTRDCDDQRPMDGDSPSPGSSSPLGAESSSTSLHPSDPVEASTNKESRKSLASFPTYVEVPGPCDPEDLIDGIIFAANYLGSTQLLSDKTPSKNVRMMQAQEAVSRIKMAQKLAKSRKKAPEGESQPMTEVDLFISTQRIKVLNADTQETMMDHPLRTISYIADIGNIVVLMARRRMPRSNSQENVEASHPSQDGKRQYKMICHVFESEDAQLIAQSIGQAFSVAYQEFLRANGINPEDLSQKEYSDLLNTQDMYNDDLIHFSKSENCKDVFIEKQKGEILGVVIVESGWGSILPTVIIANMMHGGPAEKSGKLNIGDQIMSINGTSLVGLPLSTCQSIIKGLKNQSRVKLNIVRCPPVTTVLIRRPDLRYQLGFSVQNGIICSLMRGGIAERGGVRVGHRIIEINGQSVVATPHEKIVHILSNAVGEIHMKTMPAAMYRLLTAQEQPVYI

[13] = target: T7, Voltage-gated N-type calcium channel alpha-1B subunit/Amyloid beta A4 precursor protein-binding family A member 1; format: protein assay; remark: listed apart in the source
[14] = target: Eukaryotic translation initiation factor 4E (Mus musculus, UniProt P63073); assay: blockers of eIF4G binding by eIF4E – biochemical, TR-FRET, dose response (AID 855); format: functional;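 also: potency for disrupting eIF4E binding to eIF4GI seen as loss of FRET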
Eukaryotic translation initiation factor 4E, sequence (P63073 whole entry): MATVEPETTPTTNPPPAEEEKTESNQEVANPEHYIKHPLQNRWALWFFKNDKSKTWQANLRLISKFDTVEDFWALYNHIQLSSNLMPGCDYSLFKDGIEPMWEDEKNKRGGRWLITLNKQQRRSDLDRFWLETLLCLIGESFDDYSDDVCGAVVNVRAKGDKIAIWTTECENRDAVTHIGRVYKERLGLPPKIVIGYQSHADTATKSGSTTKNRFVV

In the case of `CCOC(=O)C1=C(COC(=O)c2ccc3ccccc3c2O)NC(=O)NC1C` (stereo not drawn), the IC50 (CHO-K1) was 33.6 µM (inactive), the IC50 [1] was 37.2 µM (inactive) and the IC50 [2] was 1.62 µM (active). The IC50 [3] was 2.35 µM (active).

For `N#Cc1nc(-c2ccccc2Cl)oc1N1CCN(C(=O)c2ccco2)CC1`, the EC50 [4] was > 150 µM (not active), the EC50 [5] was > 195 µM (not active) and the EC50 (Streptokinase A) was > 150 µM (not active). For the same compound, the EC50 (Streptococcus) was > 150 µM (not active) and the AC50 (Escherichia coli) was 23.9 µM (active).

In the case of `Cc1ccccc1Cn1c2ccccc2c2cnnc(O)c21`, the AC50 [6] was 30.2 µM (active).

For `O=[N+]([O-])c1cc([N+](=O)[O-])c2ccccc2c1`, the AC50 [7] was 15.8 µM (inconclusive).

In the case of `O=[N+]([O-])c1ccc(/N=c2\ssnc2Cl)cc1`, the IC50 [8] was 23 µM (active) and the IC50 (Phosphomannomutase 2) was > 100 µM (inactive).

With `CC(C)(c1ccccc1)c1ccc(O)cc1` the AC50 (Cytochrome P450 3A4) was 20 µM (inconclusive) and the AC50 [7] was 28.2 µM (inconclusive).

With `C/C(=N\NC(=O)c1c(-c2ccccc2Cl)noc1C)c1cccc(NC(=O)C(C)C)c1` the IC50 [9] was > 79.4 µM (inactive), the IC50 [10] was > 79.4 µM (inactive) and the IC50 [11] was > 79.4 µM (inactive).

For `Clc1nss/c1=N\c1ccccc1`, the IC50 [12] was 8.44 µM (active), the IC50 [13] was 8.07 µM (active) and the IC50 [8] was 15.7 µM (active). The IC50 (Phosphomannomutase 2) was > 100 µM (inactive) and the IC50 [14] was 50 µM (inactive).
